Read-outs that look alike come from different tables or passages of the source.

These results are taken from patent US8492371B2, “Compounds as cannabinoid receptor ligands” (priority 2009, dated 2013).

Test [1] has as its target T1, human CB2 receptors (Homo sapiens, UniProt P34972).
T1 construct: expressed in transfected cells; host or cells: HEK293
Kind of test: Human CB2 radioligand binding assay ([3H]CP-55,940 competition). The gist of the method:
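Membranes from HEK293 cells stably expressing human CB2 (5 μg/well) incubated 90 min at 30 °C with 0.5 nM [3H]CP-55,940 and five concentrations of displacer (0.01 nM–10 μM) in pH 7.4 Tris/EDTA/MgCl2 buffer with fatty acid free BSA. Bound radioactivity counted after filtration; nonspecific binding defined with 10 μM unlabeled CP-55,940.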

The target in test [2] is T2, rat CB2 receptors (Rattus norvegicus, UniProt Q9QZN9).
T2 construct: expressed in transfected cells; host or cells: HEK293
T2 sequence (Q9QZN9 1-360): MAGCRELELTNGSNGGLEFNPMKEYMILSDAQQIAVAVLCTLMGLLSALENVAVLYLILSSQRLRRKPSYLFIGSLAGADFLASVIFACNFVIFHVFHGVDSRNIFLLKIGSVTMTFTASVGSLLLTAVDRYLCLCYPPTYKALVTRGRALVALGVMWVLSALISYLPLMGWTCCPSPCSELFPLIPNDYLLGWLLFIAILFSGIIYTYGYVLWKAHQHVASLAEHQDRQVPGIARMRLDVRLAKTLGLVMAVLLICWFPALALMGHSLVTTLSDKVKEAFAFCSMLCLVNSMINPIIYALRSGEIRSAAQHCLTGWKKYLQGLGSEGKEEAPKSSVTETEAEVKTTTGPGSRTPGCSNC
The experiment in a line: Rat CB2 radioligand binding assay ([3H]CP-55,940 competition). In outline:
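Membranes from HEK293 cells stably expressing rat CB2 (20 μg/well) incubated 45 min at 30 °C with 0.5 nM [3H]CP-55,940 and five competitor concentrations in Tris/EDTA/MgCl2 buffer with 0.5 mg/mL BSA, pH 7.4. Filtration and scintillation counting; nonspecific binding with 10 μM unlabeled CP-55,940.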

Where [3] appears, read: HEK293 membranes, 0.5 nM [3H]CP-55,940, read-out: human CB2 Ki.

T1 sequence (P34972 whole entry): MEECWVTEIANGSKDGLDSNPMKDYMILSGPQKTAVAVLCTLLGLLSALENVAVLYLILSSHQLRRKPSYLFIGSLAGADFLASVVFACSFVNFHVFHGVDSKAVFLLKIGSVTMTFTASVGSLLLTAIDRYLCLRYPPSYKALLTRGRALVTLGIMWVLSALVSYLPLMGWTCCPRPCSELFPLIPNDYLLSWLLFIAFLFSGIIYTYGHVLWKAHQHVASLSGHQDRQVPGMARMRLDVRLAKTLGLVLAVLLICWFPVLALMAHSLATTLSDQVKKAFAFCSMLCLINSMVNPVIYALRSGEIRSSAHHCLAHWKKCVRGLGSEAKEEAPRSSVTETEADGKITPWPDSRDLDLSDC

As usually defined, the Ki is the equilibrium dissociation constant of an inhibitor or competing ligand from its target. `COc1ccc(Cl)cc1C(=O)/N=c1\cc(C(C)(C)C)n(C)n1C[C@H]1CCCO1` [Example 45, N-{(3E)-5-tert-butyl-1-methyl-2-[(2R)-tetrahydrofuran-2-ylmethyl]-1,2-dihydro-3H-pyrazol-3-ylidene}-5-chloro-2-methoxybenzamide]: the inhibitory constant (Ki) came to 8.2 nM in test [1] and 4.9 nM in test [2].

With `Cn1c(C(C)(C)C)c/c(=N\C(=O)c2cccc(C(F)(F)F)c2F)n1C[C@H]1CCCO1` [Example 46, N-{(3E)-5-tert-butyl-1-methyl-2-[(2R)-tetrahydrofuran-2-ylmethyl]-1,2-dihydro-3H-pyrazol-3-ylidene}-2-fluoro-3-(trifluoromethyl)benzamide], the results for the inhibition constant Ki in test [1] and in test [2] were 0.7 nM and 1.3 nM, respectively.

Regarding `COc1ccc(C(F)(F)F)cc1C(=O)/N=c1\cc(C(C)(C)C)n(C)n1C[C@H]1CCCO1` [Example 47, N-{(3E)-5-tert-butyl-1-methyl-2-[(2R)-tetrahydrofuran-2-ylmethyl]-1,2-dihydro-3H-pyrazol-3-ylidene}-2-methoxy-5-(trifluoromethyl)benzamide], the inhibition constant Ki turned out to be 17 nM in test [1] and 3.7 nM in test [2].

In the case of `COc1ccc(C#N)cc1C(=O)/N=c1\cc(C(C)(C)C)n(C)n1C[C@H]1CCCO1` [Example 48], the values for the Ki in test [1] (setting [3]) and in test [2] were 143 nM and 29 nM, respectively.

`COc1ccc(Br)cc1C(=O)/N=c1\cc(C(C)(C)C)n(C)n1C[C@H]1CCCO1` [Example 49, 5-bromo-N-{(3E)-5-tert-butyl-1-methyl-2-[(2R)-tetrahydrofuran-2-ylmethyl]-1,2-dihydro-3H-pyrazol-3-ylidene}-2-methoxybenzamide]: the Ki in test [1] is 56 nM; in test [2], 20 nM.

As to `Cn1c(C(C)(C)C)c/c(=N\C(=O)c2cc(F)ccc2Cl)n1C[C@H]1CCCO1` [Example 50, N-{(3E)-5-tert-butyl-1-methyl-2-[(2R)-tetrahydrofuran-2-ylmethyl]-1,2-dihydro-3H-pyrazol-3-ylidene}-2-chloro-5-fluorobenzamide], the results for the Ki in test [1] and in test [2] were 63 nM and 54 nM, respectively.

As for `Cn1c(C(C)(C)C)c/c(=N\C(=O)c2cc(F)cc(F)c2F)n1C[C@H]1CCCO1` [Example 51, N-{(3E)-5-tert-butyl-1-methyl-2-[(2R)-tetrahydrofuran-2-ylmethyl]-1,2-dihydro-3H-pyrazol-3-ylidene}-2,3,5-trifluorobenzamide], the inhibition constant (Ki) in test [1] stood at 68 nM; in test [2], 67 nM.

Take `Cn1c(C(C)(C)C)c/c(=N\C(=O)c2cc(C(F)(F)F)cc(Cl)c2F)n1C[C@H]1CCCO1` [Example 52, N-{(3E)-5-tert-butyl-1-methyl-2-[(2R)-tetrahydrofuran-2-ylmethyl]-1,2-dihydro-3H-pyrazol-3-ylidene}-3-chloro-2-fluoro-5-(trifluoromethyl)benzamide]: the Ki was found to be 6.6 nM in test [1] and 1.3 nM in test [2].

Take `COc1c(Cl)cc(C(F)(F)F)cc1C(=O)/N=c1\cc(C(C)(C)C)n(C)n1C[C@H]1CCCO1` [Example 53, N-{(3E)-5-tert-butyl-1-methyl-2-[(2R)-tetrahydrofuran-2-ylmethyl]-1,2-dihydro-3H-pyrazol-3-ylidene}-3-chloro-2-methoxy-5-(trifluoromethyl)benzamide]: the figures for the Ki in test [1] and in test [2] were 16 nM and 4.3 nM, respectively.

Take `Cn1c(C(C)(C)C)c/c(=N\C(=O)c2cc(C(F)(F)F)ccc2Cl)n1C[C@H]1CCCO1` [Example 54, N-{(3E)-5-tert-butyl-1-methyl-2-[(2R)-tetrahydrofuran-2-ylmethyl]-1,2-dihydro-3H-pyrazol-3-ylidene}-2-chloro-5-(trifluoromethyl)benzamide]: the inhibition constant Ki in test [1] turned out to be 17 nM; in test [2], 9.5 nM.

For the compound `COc1c(F)cc(F)cc1C(=O)/N=c1\cc(C(C)(C)C)n(C)n1C[C@H]1CCCO1` [Example 55, N-{(3E)-5-tert-butyl-1-methyl-2-[(2R)-tetrahydrofuran-2-ylmethyl]-1,2-dihydro-3H-pyrazol-3-ylidene}-3,5-difluoro-2-methoxybenzamide], the inhibition constant (Ki) in test [1] (setting [3]) was 152 nM; in test [2] (HEK293 membranes, 0.5 nM [3H]CP-55,940, read-out: rat CB2 Ki) it was 143 nM.

For the compound `COCCOc1ccc(Br)cc1C(=O)/N=c1\cc(C(C)(C)C)n(C)n1C[C@H]1CCCO1` [Example 58, 5-bromo-N-{(3E)-5-tert-butyl-1-methyl-2-[(2R)-tetrahydrofuran-2-ylmethyl]-1,2-dihydro-3H-pyrazol-3-ylidene}-2-(2-methoxyethoxy)benzamide], the Ki in test [1] was determined as 31 nM; in test [2], 69 nM.

Take `Cn1c(C(C)(C)C)c/c(=N\C(=O)c2cc(Br)ccc2OCCF)n1C[C@H]1CCCO1` [Example 59, 5-bromo-N-{(3E)-5-tert-butyl-1-methyl-2-[(2R)-tetrahydrofuran-2-ylmethyl]-1,2-dihydro-3H-pyrazol-3-ylidene}-2-(2-fluoroethoxy)benzamide]: the results for the Ki in test [1] and in test [2] were 28 nM and 27 nM, respectively.

Take `Cn1c(C(C)(C)C)c/c(=N\C(=O)c2cc(Br)cc3c2OCC3)n1C[C@H]1CCCO1` [Example 60, 5-bromo-N-{(3E)-5-tert-butyl-1-methyl-2-[(2R)-tetrahydrofuran-2-ylmethyl]-1,2-dihydro-3H-pyrazol-3-ylidene}-2,3-dihydro-1-benzofuran-7-carboxamide]: the Ki turned out to be 66 nM in test [1] and 46 nM in test [2].

With `COc1ccc(Cl)cc1C(=O)/N=c1\cc(C(C)(C)C)ccn1C[C@H]1CCCO1` [Example 61, N-[(2E)-4-tert-butyl-1-[(2R)-tetrahydrofuran-2-ylmethyl]pyridin-2(1H)-ylidene]-5-chloro-2-methoxybenzamide], the Ki in test [1] (setting [3]) was 103 nM; in test [2], 13 nM.

As for `COc1ccc(C(F)(F)F)cc1C(=O)/N=c1\cc(C(C)(C)C)ccn1C[C@H]1CCCO1` [Example 62, N-[(2E)-4-tert-butyl-[(2R)-tetrahydrofuran-2-ylmethyl]pyridin-2(1H)-ylidene]-2-methoxy-5-(trifluoromethyl)benzamide], the inhibitory constant (Ki) in test [1] came to 20 nM; in test [2], 4 nM.

On to `COc1ccc(C(F)(F)F)cc1C(=O)/N=c1\cc(C(C)(C)C)n(C)n1CC1CCCCO1` (stereo not drawn) [Example 63, N-[(3E)-5-tert-butyl-1-methyl-2-(tetrahydro-2H-pyran-2-ylmethyl)-1,2-dihydro-3H-pyrazol-3-ylidene]-2-methoxy-5-(trifluoromethyl)benzamide], for which the Ki in test [1] is 36 nM; in test [2], 20 nM.

Take `COc1ccc(C(F)(F)F)cc1C(=O)/N=c1\cc(C(C)(C)C)n(C)n1CC1CC[C@H](C)O1` (stereo partly drawn) [Example 65, N-((3E)-5-tert-butyl-1-methyl-2-{[(55)-5-methyltetrahydrofuran-2-yl]methyl}-1,2-dihydro-3H-pyrazol-3-ylidene)-2-methoxy-5-(trifluoromethyl)benzamide]: the Ki amounted to 65 nM in test [1] and 5.7 nM in test [2].

`COc1ccc(C(F)(F)F)cc1C(=O)/N=c1\oc(C(C)(C)C)cn1C[C@H]1CCCO1` [Example 66, N-[(2Z)-5-tert-butyl-3-[(2R)-tetrahydrofuran-2-ylmethyl]-1,3-oxazol-2(3 H)-ylidene]-2-methoxy-5-(trifluoromethyl)benzamide]: the Ki worked out at 2.1 nM in test [1] and 0.8 nM in test [2].

On to `CC1CCC(NC(=O)/N=c2\sc(C(C)(C)C)nn2C[C@H]2CCCO2)CC1` (stereo partly drawn) [Example 67, N-[(2Z)-5-tert-butyl-3-[(2R)-tetrahydrofuran-2-ylmethyl]-1,3,4-thiadiazol-2(3 H)-ylidene]-N′-(4-methylcyclohexyl)urea], for which the values for the Ki in test [1] and in test [2] were 16 nM and 10 nM, respectively.

On to `CC(C)(C)c1nn(C[C@H]2CCCO2)/c(=N/C(=O)NC2CCCc3ccccc32)s1` (stereo partly drawn) [Example 73, N-[(2Z)-5-tert-butyl-3-[(2R)-tetrahydrofuran-2-ylmethyl]-1,3,4-thiadiazol-2(3 H)-ylidene]-N′-1,2,3,4-tetrahydronaphthalen-1-ylurea], for which the Ki in test [1] stood at 45 nM; in test [2], 8.2 nM.

In the case of `CC(CCc1ccccc1)NC(=O)/N=c1\sc(C(C)(C)C)nn1C[C@H]1CCCO1` (stereo partly drawn) [Example 79, N-[(2Z)-5-tert-butyl-3-[(2R)-tetrahydrofuran-2-ylmethyl]-1,3,4-thiadiazol-2(3 H)-ylidene]-N′-(1-methyl-3-phenylpropyl)urea], the Ki in test [1] worked out at 32 nM; in test [2] it was 11 nM.

For `CNC(=O)[C@@H](NC(=O)/N=c1\sc(C(C)(C)C)nn1C[C@H]1CCCO1)C(C)(C)C` [Example 82, N^2-({[(2Z)-5-tert-butyl-3-[(2R)-tetrahydrofuran-2-ylmethyl]-1,3,4-thiadiazol-2(3H)-ylidene]amino}carbonyl)-N^1,3-dimethyl-L-valinamide], the Ki in test [1] was 3.8 nM; in test [2] it was 10 nM.

For `CC(C)[C@@H](CO)NC(=O)/N=c1\sc(C(C)(C)C)nn1C[C@H]1CCCO1` [Example 84, N-[(2Z)-5-tert-butyl-3-[(2R)-tetrahydrofuran-2-ylmethyl]-1,3,4-thiadiazol-2(3 H)-ylidene]-N′-[(1S)-1-(hydroxymethyl)-2-methylpropyl]urea], the Ki turned out to be 199 nM in test [1] and 73 nM in test [2].
